According to US20060167104A1, “Method for extracting a novel compound from the root of a plant of the pentadiplandraceae family and use of N,N'-dibenzylthiourea as a medicine” (priority 2002, published 2006):

Assays:
[1] = Fentom method: degradation of deoxyribose by free radicals from xanthine/xanthine oxidase, malondialdehyde measured by colorimetry; assay type: biochemical; details: in relation to the control containing no free hydroxyl radical trapper
Description: We used the Fentom method. This method is based on the degradation of deoxyribose by free radicals generated by the xanthine/xanthine oxidase system. This degradation leads to the formation of malondialdehyde which is measured by colorimetry.
In this technique, the trapping of free hydroxyl radicals is translated into a decrease in the formation of malondialdehyde.
N,N′-dibenzylthiourea in solutions of concentration 20, 10 and 5% decreases the production of malondialdehyde by 65, 59 and 51% respectively in relation to the control containing no free hydroxyl radical trapper.

## S=C(NCc1ccccc1)NCc1ccccc1 [N,N′-dibenzylthiourea]
[1]; solution of concentration 5%
  decrease in the production of malondialdehyde: 51%
[1]; solution of concentration 10%
  decrease in the production of malondialdehyde: 59%
[1]; solution of concentration 20%
  decrease in the production of malondialdehyde: 65%
Toxicity statement
  toxicity: non-toxic
